Assay results as given in patent publication US5846720A, “Methods of determining chemicals that modulate expression of genes associated with cardiovascular disease” (Oncogene Science, Inc., priority 1996, dated 1998).
Read-outs that look alike come from different tables or passages of the source.

Legend:
hGH promoter = test: hGH promoter/luciferase reporter assay (high-throughput screen I), 532 cells; format: cell-based, rat; details: Table 2, 6 h incubation; for hGH fold inhibition relative to solvent control: transcriptional inhibitors; for hGH fold induction relative to solvent control: transcriptional activators
Excerpt: 6. a GC rat pituitary cell line, transfected with the growth hormone reporter plasmid, designated 532, deposited under ATCC Accession No. CRL 10663.

MMTV promoter = test: MMTV promoter/luciferase reporter assay (high-throughput screen I, control for specificity), M10 cells; format: cell-based, mouse; details: Table 2, 6 h incubation; for MMTV fold inhibition relative to solvent control: transcriptional inhibitors; for MMTV fold induction relative to solvent control: transcriptional activators, original high-throughput assay
Description: pMluci and pSV2Neo, an antibiotic resistance plasmid (84), were co-transfected into NIH/3T3 mouse fibroblast cells using the calcium phosphate precipitation method (85) with a commercially available kit (Pharmacia, Piscataway N.J.). Two days later, cells were transferred to media containing 0.4 mg/ml G418 and were grown for an additional 10-14 days. G418-resistant clones were isolated by standard methods. Once sufficient cell numbers were obtained, clones were analyzed based on several criteria: constitutive luciferase production, induction of luciferase expression by dexamethasone ([…], Sigma, St. Louis, Mo.), satisfactory attachment to microtiter plates used in the high-throughput screen (see section G) and acceptable standard deviation in multiple luciferase expression assays (see below for assay protocol). This analysis was carried out using the luciferase assay conditions described above. Of the clones which satisfied the above criteria for the high throughput screen, one clone, M10, was selected for use.

G-CSF promoter = test: G-CSF promoter/luciferase reporter assay (high-throughput screen I), G21 cells; details: for GCSF fold induction relative to solvent control: transcriptional activators
[1] = transcriptional inhibitors, Table 2, 6 h incubation

Structure (SMILES)	hGH fold inhibition relative to solvent control (hGH promoter) [fold]	MMTV fold inhibition relative to solvent control (MMTV promoter) [fold]	GCSF fold inhibition relative to solvent control (G-CSF promoter; [1]) [fold]	hGH fold induction relative to solvent control (hGH promoter) [fold]	MMTV fold induction relative to solvent control (MMTV promoter) [fold]	GCSF fold induction relative to solvent control (G-CSF promoter; Table 2, 6 h incubation) [fold]	GCSF fold inhibition relative to solvent control (G-CSF promoter)
Cc1cc(C)nc(NS(=O)(=O)c2ccc(N)cc2)n1 [Chemical 443]	4.76	0.79	0.60				
Nc1ncnc2c1nc(Br)n2[C@@H]1O[C@H](CO)[C@@H](O)[C@H]1O [Chemical 1583]				0.12	0.88	5.82	
COC(=O)CP(=O)(OCC(F)(F)F)OCC(F)(F)F [Chemical 1651]	3.57	0.70	0.69				
CC(CCl)CBr (stereo not drawn) [Chemical 2096]				0.61	0.89	3.27	
O=C(c1ccccc1)c1ccncc1 [Chemical 209]	1.08	0.81	6.66				
CCOC(=O)N1C(=O)c2ccccc2C1=O [Chemical 237]				0.06	0.62	4.77	
Cc1n[nH]cc1Br [Chemical 2082]	0.65	1.23	5.26				
O=C(O)c1ccc2c3c(ncnc13)-c1ccccc1C2=O [Chemical 378]				0.26	0.59	4.12	
O=C(O[C@H](C(=O)O)[C@H](OC(=O)c1ccccc1)C(=O)O)c1ccccc1 [Chemical 578]	4.00	0.91	0.65				
Cc1ccc(C(=O)c2ccccc2N)cc1 [Chemical 1384]				0.50	2.43	1.33	
Nc1ccccc1SSc1ccccc1N [Chemical 1482]				0.54	1.07	3.99	
NC(=O)c1ccccc1O [Chemical 798]	0.90	0.68	4.76				
Nc1c(O)c(S(=O)(=O)O)c(O)c2c1C(=O)c1ccccc1C2=O [Chemical 640]	5.00	0.59	0.64				
CN(C)c1ccc(C(=C2C=CC(=[N+](C)C)C=C2)c2ccc(N(C)C)cc2)cc1 [Chemical #1780, Crystal Violet]				0.38	1.15	20.39	
COc1c(F)cc(Br)cc1[N+](=O)[O-] [Chemical 2030]				0.67	0.87	5.53	
CC1=CC(=C(c2cc(C)c(O)c(C(=O)O)c2)c2c(Cl)ccc(S(=O)(=O)O)c2Cl)C=C(C(=O)O)C1=O [Chemical 556]	33.33	0.87	0.73				
OCC1CC2C3CC(CO)C(C3)C2C1 (stereo not drawn) [Chemical 1678]				7.08	0.89	0.36	
Clc1ccc(Sc2cc(Cl)c(Cl)cc2Cl)cc1 [Chemical 828]				1.34	2.20	1.47	
Nc1ccc2c(c1)C(=O)c1ccccc1-2 [Chemical 1318]				0.85	2.41	1.13	
CC(=O)OCC(=O)[C@@]1(O)CC[C@H]2[C@@H]3CCC4=CC(=O)C=C[C@]4(C)[C@H]3[C@@H](O)C[C@@]21C [Chemical 765]				1.30	2.66	0.96	
OCc1cccc(Cl)c1 [Chemical 2121]	0.40	1.14	4.76				

Structure (SMILES)	hGH fold inhibition relative to solvent control (hGH promoter) [fold]	MMTV fold inhibition relative to solvent control (MMTV promoter) [fold]	GCSF fold inhibition relative to solvent control (G-CSF promoter; [1]) [fold]	hGH fold induction relative to solvent control (hGH promoter) [fold]	MMTV fold induction relative to solvent control (MMTV promoter) [fold]	GCSF fold induction relative to solvent control (G-CSF promoter; Table 2, 6 h incubation) [fold]	GCSF fold inhibition relative to solvent control (G-CSF promoter)
O=c1c(O)c(-c2ccc(O)c(O)c2)oc2cc(O)ccc12 [Chemical 325]				5.42	1.0	0.14	
CC(=O)n1ccnc1 [Chemical #58, 1-Acetylimidazole]				0.17	0.42	6.03	
O=S(=O)(O)c1ccc(-c2nnc(-c3ccnc(-c4nnc(-c5ccc(S(=O)(=O)O)cc5)c(-c5ccc(S(=O)(=O)O)cc5)n4)c3)nc2-c2ccc(S(=O)(=O)O)cc2)cc1 [Chemical 1604]	5.00	0.97	0.77				
CC(C)(C)c1ccc(Br)cc1 [Chemical 2001]				0.74	1.12	3.11	
C(=Cc1ccccn1)c1ccccn1 [Chemical 1640]	5.00	0.59	0.79				
CCCCCCCCCCCCCCCCBr [Chemical 2037]	4.00	0.50	0.51				
NCc1ccc(S(N)(=O)=O)cc1 [Chemical 1375]				0.04	1.37	8.94	
O=C(O)c1ccc(Br)o1 [Chemical 2035]	7.14	0.89	0.57				
C1CCNCC1 [Chemical 759]	5.88	0.95					0.64
CN(C)c1ccc2cc3ccc(N(C)C)cc3nc2c1 [Chemical 80]				0.66	0.83	5.87	
Nc1nc(=O)n([C@H]2C[C@H](O)[C@@H](CO)O2)cc1Br [Chemical #542, 5-Bromo-2'-deoxycytidine]				1.08	1.26	6.28	
Nc1nc2c(nc(Br)n2[C@@H]2O[C@H](CO)[C@@H](O)[C@H]2O)c(=O)[nH]1 [Chemical 2036]	4.34	0.81	0.58				
Nc1ccc2c(c1)Cc1ccccc1-2 [Chemical 1316]				1.39	2.33	0.74	
Cc1cc(C2(c3cc(C)c(O)c(CN(CC(=O)O)CC(=O)O)c3)OC(=O)c3ccccc32)cc(CN(CC(=O)O)CC(=O)O)c1O [Chemical 1773]	10.00	0.67	0.62				
Cc1ccc(N)c(S(=O)(=O)O)c1 [Chemical 1376]				0.04	1.32	6.37	
Nc1ccc(SSc2ccc(N)cc2)cc1 [Chemical 1483]				0.38	1.09	4.64	
NCCC(=O)N[C@@H](Cc1cnc[nH]1)C(=O)O [Chemical 1771]	10.00	0.72	0.71				
c1ncncn1 [Chemical 473]				0.50	0.87	> 3	
O=S(=O)(O)c1ccc2c(N=Nc3ccc(S(=O)(=O)O)c4ccccc34)c(O)c(S(=O)(=O)O)cc2c1 [Chemical 512]	5.26	0.68	0.81				
CC1(C)[C@H]2CC[C@]1(C)[C@H](O)C2 [Chemical 1635]	9.09	0.99	0.71				
